What was measured:
Coagulation factor X = Coagulation factor X (Homo sapiens, UniProt P00742); test: In vitro inhibitory activity against Factor Xa
[1] = target: Thrombin & trypsin (Homo sapiens) (UniProt P00734+P07477+P07478+P35030); test: Selectivity ratio of thrombin to trypsin; assay type: protein assay
Serine protease 1 = Serine protease 1 (Homo sapiens, UniProt P07477); test: In vitro inhibitory activity against Trypsin
Prothrombin = Prothrombin (Homo sapiens, UniProt P00734); test: In vitro inhibitory activity against Thrombin
Homo sapiens [2] = organism: Homo sapiens; test: Concentration required to double the thrombin time in human plasma (TT); assay type: functional, cell-free
Homo sapiens [3] = organism: Homo sapiens; test: Concentration required to double the activated partial thromboplastin time in human plasma (APTT); assay type: functional, cell-free
Homo sapiens [4] = organism: Homo sapiens; test: Concentration required to double the […] prothrombin time in human plasma (PT); assay type: functional, cell-free

Chain of Coagulation factor X (P00742 41-179 limits assumed): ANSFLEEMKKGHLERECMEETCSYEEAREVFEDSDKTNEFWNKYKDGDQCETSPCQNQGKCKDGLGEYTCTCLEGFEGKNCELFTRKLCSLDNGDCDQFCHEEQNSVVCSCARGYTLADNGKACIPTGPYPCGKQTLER
Chain of Coagulation factor X (P00742 235-488 limits assumed): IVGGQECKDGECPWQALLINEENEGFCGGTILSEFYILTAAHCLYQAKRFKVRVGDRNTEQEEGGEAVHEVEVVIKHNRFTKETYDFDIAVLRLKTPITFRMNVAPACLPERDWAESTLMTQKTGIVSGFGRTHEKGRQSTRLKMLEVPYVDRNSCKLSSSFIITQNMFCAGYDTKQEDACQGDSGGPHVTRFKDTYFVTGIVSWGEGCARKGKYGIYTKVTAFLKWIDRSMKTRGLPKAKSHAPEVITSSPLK
Chain of Serine protease 1 (P07477 whole entry): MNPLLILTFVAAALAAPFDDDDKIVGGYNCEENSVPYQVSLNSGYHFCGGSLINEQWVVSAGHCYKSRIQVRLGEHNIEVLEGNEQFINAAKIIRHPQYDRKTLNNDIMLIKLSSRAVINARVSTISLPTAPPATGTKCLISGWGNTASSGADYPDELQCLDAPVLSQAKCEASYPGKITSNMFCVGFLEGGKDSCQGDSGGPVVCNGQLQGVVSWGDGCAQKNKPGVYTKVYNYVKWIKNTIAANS

SMILES	Ki (Coagulation factor X) [µM]	Ratio [1]	Ki (Serine protease 1) [µM]	Ki (Prothrombin) [µM]	Concentration (Homo sapiens [2]) [µM]	Concentration (Homo sapiens [3]) [µM]	Concentration (Homo sapiens [4]) [µM]
Nc1ncc2c(n1)CCC(NC(=O)[C@@H]1CCCN1C(=O)[C@@H](CC1CCCCC1)NS(=O)(=O)Cc1ccccc1)C2 (stereo partly drawn)	> 75.4		> 68.3	> 35.1			
O=C(NC1CCc2n[nH]cc2C1)[C@@H]1CCCN1C(=O)[C@@H](CC1CCCCC1)NS(=O)(=O)Cc1ccccc1 (stereo partly drawn)	> 75.4	> 13	> 68.3	5.38			
O=C(NCC1CCc2ncncc2C1)[C@@H]1CCCN1C(=O)[C@@H](CC1CCCCC1)NS(=O)(=O)Cc1ccccc1 (stereo partly drawn)	111		342				
Cn1cc2c(n1)CCC(NC(=O)[C@@H]1CCCN1C(=O)[C@@H](CC1CCCCC1)NS(=O)(=O)Cc1ccccc1)C2 (stereo partly drawn)			730				
O=C(O)CN[C@H](CC1CCCCC1)C(=O)N1CCC[C@H]1C(=O)NCC1CCc2n[nH]cc2C1 (stereo partly drawn)	84.8	71	19.9		4.9	28	55.3
Nc1ncc2c(n1)CCC(CNC(=O)[C@@H]1CCCN1C(=O)[C@H](N)Cc1ccc(Cl)c(Cl)c1)C2 (stereo partly drawn)	> 75.4		> 68.3	> 35.1			
Nc1ncc2c(n1)CCC(CNC(=O)[C@@H]1CCCN1C(=O)[C@H](N)C(c1ccccc1)c1ccccc1)C2 (stereo partly drawn)	57.6	32	409	12.9			
N[C@@H](C(=O)N1CCC[C@H]1C(=O)NCC1CCc2n[nH]cc2C1)C(c1ccccc1)c1ccccc1 (stereo partly drawn)	82.1		217				
CC(C)(C)OC(=O)N[C@H](Cc1ccc(Cl)c(Cl)c1)C(=O)N1CCC[C@H]1C(=O)NCC1CCc2nc(N)ncc2C1 (stereo partly drawn)	> 75.4		> 68.3	> 35.1			
CC(C)(C)OC(=O)N[C@@H](C(=O)N1CCC[C@H]1C(=O)NCC1CCc2n[nH]cc2C1)C(c1ccccc1)c1ccccc1 (stereo partly drawn)	85.2			0.53	29.2	81	105

The next lines start with results.

Ki (Coagulation factor X) [µM]	Ratio [1]	Ki (Serine protease 1) [µM]	Ki (Prothrombin) [µM]	SMILES	Concentration (Homo sapiens [2]) [µM]	Concentration (Homo sapiens [3]) [µM]	Concentration (Homo sapiens [4]) [µM]
> 75.4	> 21	> 68.3	3.33	CC(C)(C)OC(=O)N[C@H](Cc1ccc(Cl)c(Cl)c1)C(=O)N1CCC[C@H]1C(=O)NCC1CCc2n[nH]cc2C1 (stereo partly drawn)			
> 75.4		> 68.3	> 35.1	Nc1ncc2c(n1)CCC(CNC(=O)[C@@H]1CCCN1C(=O)[C@@H](CC1CCCCC1)NS(=O)(=O)Cc1ccccc1)C2 (stereo partly drawn)			
> 75.4	> 99	> 68.3	0.69	N[C@H](Cc1ccc(Cl)c(Cl)c1)C(=O)N1CCC[C@H]1C(=O)NCC1CCc2n[nH]cc2C1 (stereo partly drawn)			
> 75.4	> 478	> 68.3		O=C(NCC1CCc2n[nH]cc2C1)[C@@H]1CCCN1C(=O)[C@@H](CC1CCCCC1)NS(=O)(=O)Cc1ccccc1 (stereo partly drawn)	11	42.3	78.3
	15	416	27.3	O=C(NC1CCc2c[nH]cc2C1)[C@@H]1CCCN1C(=O)[C@@H](CC1CCCCC1)NS(=O)(=O)Cc1ccccc1 (stereo partly drawn)			

From ChEMBL document CHEMBL1136607, “Novel thrombin inhibitors incorporating non-basic partially saturated heterobicyclic P1-arginine mimetics” (Bioorg Med Chem Lett, 2003)
